Measured values from patent US12454541B2, “Reagent for measuring oxygen concentration in cell and tissue” (NATIONAL UNIVERSITY CORPORATION GUNMA UNIVERSITY, priority 2019, dated 2025).

Tests used:
[1] = Photophysical properties of iridium complexes in a solution (absorption, phosphorescence spectrum, quantum yield, lifetime); type: physicochemical; conditions: for maximum absorption wavelength λabs / maximum emission (phosphorescence) wavelength λphos / molecular extinction coefficient ε: in acetonitrile at room temperature; for molecular extinction coefficient ε: at λabs; for phosphorescence lifetime τp / phosphorescence quantum yield Φp: in acetonitrile, under deoxidized conditions
Description: Photophysical properties of the phosphorescence of the compound represented by General Formula (I) or (II), such as the maximum absorption/phosphorescence wavelength, the phosphorescence quantum yield (Φp), and the phosphorescence lifetime (τp), can be measured by known measurement methods. For example, the maximum absorption/phosphorescence wavelength can be measured using a spectrophotometer or the like, and the phosphorescence quantum yield can be measured using a luminescence quantum yield measurement apparatus or the like, for a sample in which the compound represented by General Formula (I) or (II) is dissolved in a solvent or the like. Regarding the phosphorescence lifetime, the […] (τp) of the compound in each solvent can be measured using a phosphorescence lifetime measurement apparatus.
Absorption spectrum: ultraviolet and visible spectrophotometer, Ubest-550; manufactured by JASCO Corporation
Phosphorescence spectrum: multichannel spectroscope, PMA-12; manufactured by Hamamatsu Photonics K. K.
Phosphorescence quantum yield: luminescence quantum yield measurement apparatus, C9920-01; manufactured by Hamamatsu Photonics K. K.
Phosphorescence lifetime: compact fluorescence lifetime measurement apparatus, Quantaurus-Tau; manufactured by Hamamatsu Photonics K.K.
The maximum absorption wavelength (λabs) was found at 473 to 499 nm, and the molecular extinction coefficient (ε/dm^3 mol^−1 cm^−1) was not less than 70,000 dm^3 mol^−1 cm^−1. The maximum emission wavelength (λphos) was found at 577 to 622 nm. […] Therefore, the observed luminescence can be identified as a phosphorescence. […] These are higher quantum yields compared to those of the iridium complexes that have been reported so far.

[2] = system: kidney of a mouse; test: Phosphorescence intensity and lifetime imaging (PLIM) of kidney of mouse after tail vein administration; type: in vivo; conditions: mouse under anesthesia, 250 nmol, excitation 488 nm
[3] = system: HT-29 cells; test: Tracing of intracellular oxygen by phosphorescence lifetime of C6-BEDA in HT-29 cells using a plate reader; type: cell-based; conditions: for change of phosphorescence lifetime of C6-BEDA in cells after additive: C6-BEDA 500 nM, plate sealed with oil, excitation 480 nm, measurement 600 nm; for change of phosphorescence lifetime of C6-BEDA in cells after additive / change of intracellular oxygen partial pressure after additive: antimycin A 10 μM or FCCP 1 μM; for change of intracellular oxygen partial pressure after additive: converted from C6-BEDA phosphorescence lifetime with calibration curve
Protocol: (§1) Luminescence intensity, luminescence lifetime: microplate reader, Infinite 200 PRO; manufactured by TECAN.
Using a luminescence lifetime measurement mode of a commercially available plate reader, changes in the oxygen concentration in cells were traced. In a 96-well plate, HT-29 cells were plated at 50,000 cells/well, and cultured for 48 hours. Thereafter, C6-BEDA was added thereto to a final concentration of 500 nM, and culture was carried out for 2 hours. […] After sealing the plate with oil, the phosphorescence lifetime was measured using a plate reader (excitation wavelength, 480 nm; measurement wavelength, 600 nm; FIG. 6). The phosphorescence lifetime (τp/μs) was calculated using the following equation. τp=30/ln(W1/W2)
Here, W1 and W2 are the integrated values of the phosphorescence intensity obtained during the periods of 10 to 30 μs and 40 to 60 μs after the pulse excitation. In the cells to which no additive was added, the phosphorescence lifetime increased with time. […] This is due to the fact that intracellular oxygen consumption was stopped by the respiration inhibitory action of antimycin A, while intracellular oxygen consumption increased by the respiration-promoting action of FCCP. In order to convert the measured phosphorescence lifetime to the oxygen partial pressure, preparation of a calibration curve is necessary. Here, the calibration curve was prepared by measuring the phosphorescence lifetime at different oxygen partial pressures in the plate reader (pO2=1521.03225 exp(−τp/[…])) (FIG. 7).

[4] = system: HeLa cells; test: Phosphorescence imaging and microplate-reader phosphorescence intensity of HeLa cells with added iridium complex; type: cell-based; conditions: for phosphorescence intensity in imaging under oxygen partial pressure of 2.5% (intracellular oxygen responsiveness): HeLa cells, 500 nM, 2 hours culture, 2.5% vs 21% oxygen; for phosphorescence intensity in HeLa cells (comparison between complexes): final concentration 500 nM, 2 hours of culture, imaging and microplate reader
Protocol: Luminescence micrograph: inverted research microscope, IX-71; manufactured by Olympus Corporation
as §1
Using the iridium complexes developed, imaging experiments for living cells were carried out. […] For quantitative evaluation, the phosphorescence intensity was measured using a microplate reader (FIG. 4).
For C6-BEDA and C545T-BEDA, intracellular oxygen responsiveness was evaluated. […] Further, as a result of measurement of the phosphorescence intensity using a microplate reader, it was shown that the phosphorescence intensity increases 3-fold or more under an oxygen partial pressure of 2.5% (FIG. 4).

[5] = system: liver of a mouse; test: Phosphorescence lifetime imaging (PLIM) of liver of mouse after tail vein administration; type: in vivo; conditions: mouse under anesthesia, 250 nmol, excitation 488 nm
Protocol: Subsequently, the in vivo dynamics was evaluated. In the present experiment, a microscope capable of acquiring a phosphorescence lifetime image as well as a phosphorescence intensity image (PLIM: phosphorescence lifetime imaging microscope) was used. To the tail vein of a mouse under anesthesia, 250 μL of a solution of C6-MEDA or C6-BEDA (physiological saline:DMSO=9:1, v/v, 250 nmol) was administered to carry out a phosphorescence intensity imaging experiment and a phosphorescence lifetime imaging experiment (excitation wavelength, 488 nm; monitoring wavelength, 510 to 560 nm). […] The liver is composed of functional units called hepatic lobules. Arteries and portal veins are present in the periphery of hepatic lobules, and veins are present in the center. It has thus been pointed out that there is a gradient of the oxygen partial pressure from the periphery to the center. […] It can be seen that the area with a short lifetime (which is blue in the color image) corresponds to the periphery of hepatic lobules, and that the area with a long lifetime (which is orange in the color image) corresponds to the area near the central vein.

| Compound | maximum absorption wavelength λabs [1] [nm] | maximum emission (phosphorescence) wavelength λphos [1] [nm] | molecular extinction coefficient ε [1] | phosphorescence lifetime τp [1] [μs] | phosphorescence quantum yield Φp [1] | imaging of kidney [2] | change of phosphorescence lifetime of C6-BEDA in cells after additive [3] | change of intracellular oxygen partial pressure after additive [3] | phosphorescence intensity in imaging under oxygen partial pressure of 2.5% (intracellular oxygen responsiveness) [4] | phosphorescence intensity in HeLa cells (comparison between complexes) [4] | suitability as probe for intracellular oxygen concentration ([3]; 500 nM, plate reader) | phosphorescence lifetime imaging of liver [5] |
| --- | --- | --- | --- | --- | --- | --- | --- | --- | --- | --- | --- | --- |
| Bis[3-(benzo[d]thiazol-2-yl)-7-(diethylamino)-2H-chromen-2-one-κN, κC^4]N^1,N^2-dimethylethane-1,2-diamine iridium(III) hexafluorophosphate [C6-MEDA] | 481 | 593 | 103,000 dm^3mol^−1cm^−1 | 38.7 | 0.75 | Renal tubular cells could be clearly imaged |  |  |  |  |  |  |
| antimycin A |  |  |  |  |  |  | hardly changed | slight increase in the oxygen partial pressure |  |  |  |  |
| CC1(C)CCN2CCC(C)(C)c3c2c1cc1[c-]c(-c2nc4ccccc4s2)c(=O)oc31.CC1(C)CCN2CCC(C)(C)c3c2c1cc1[c-]c(-c2nc4ccccc4s2)c(=O)oc31.CCCCNCCNCCCC.F[P-](F)(F)(F)(F)F.[Ir+3] [C545T-BEDA, Bis[10-(benzo[d]thiazol-2-yl)-1,1,7,7-tetramethyl-2,3,6,7-tetrahydro-1H-pyrano [2,3-f]pyrido[3,2,1-ij]quinolin-11(5H)-one-κN, κC^4]N^1,N^2-dibutylethane-1,2-diamine iridium(III) hexafluorophosphate] | 499 | 622 | 90,600 dm^3mol^−1cm^−1 | 53.7 | 0.40 |  |  |  | remarkable increases in the phosphorescence intensity | exhibit higher phosphorescence intensities |  |  |
| CC1(C)CCN2CCC(C)(C)c3c2c1cc1[c-]c(-c2nc4ccccc4s2)c(=O)oc31.CC1(C)CCN2CCC(C)(C)c3c2c1cc1[c-]c(-c2nc4ccccc4s2)c(=O)oc31.CNCCNC.F[P-](F)(F)(F)(F)F.[Ir+3] [C545T-MEDA, Bis[10-(benzo[d]thiazol-2-yl)-1,1,7,7-tetramethyl-2,3,6,7-tetrahydro-1H-pyrano [2,3-f]pyrido[3,2,1-ij]quinolin-11(5H)-one-κN, κC^4]N^1,N^2-dimethylethane-1,2-diamine iridium(III) hexafluorophosphate] | 496 | 621 | 77,000 dm^3mol^−1cm^−1 | 46.5 | 0.36 |  |  |  |  |  |  |  |
| Bis[3-(benzo[d]thiazol-2-yl)-7-(diethylamino)-2H-chromen-2-one-κN, κC^4]ethane-1,2-diamine iridium(III) hexafluorophosphate [C6-EDA] | 473 | 577 | 91,700 dm^3mol^−1cm^−1 | 38.9 | 0.82 |  |  |  |  |  |  |  |
| Bis[3-(benzo[d]thiazol-2-yl)-7-(diethylamino)-2H-chromen-2-one-κN, κC^4]N^1,N^2-dibutylethane-1,2-diamine iridium(III) hexafluorophosphate [C6-BEDA] | 482 | 594 | 106,000 dm^3mol^−1cm^−1 | 34.8 | 0.65 |  |  |  | remarkable increases in the phosphorescence intensity | exhibit higher phosphorescence intensities | capable of real-time tracing of changes in the intracellular oxygen concentration | the presence of the gradient of the phosphorescence lifetime can be seen |
| N#CC(C#N)=NNc1ccc(OC(F)(F)F)cc1 [FCCP] |  |  |  |  |  |  | remarkably increased | rapid decrease in the oxygen partial pressure |  |  |  |  |
